For assay [1], the system named is AI-2-mediated gene expressions. Particulars: at about 323 μM; cited from earlier work.
Another assay has as its system V. harveyi. In words: Bacterial growth curves (doubling time). The format is cell-based, Vibrio harveyi.
The subject of assay [2] is AI-2-mediated quorum sensing. The assay is described as follows: microbe, parasite or virus in culture. Particulars: tested at least 3 times. In kind it is cell-based, Vibrio harveyi. Here is the method: The candidate compounds identified as described in Example 1, above, were tested for their ability to inhibit AI-2 induced quorum sensing using the MM32 strain of V. harveyi. […] The V. harveyi bacteria can also emit luminescence upon AI-2 induced quorum sensing stimulation. Therefore, the ability of the “virtually” identified compounds to inhibit luminescence production in the presence of DPD and boric acid was examined.
MM32 bacteria were streak-seeded on fresh LM plates and cultured in the presence of kanamycin (50 μg/mL) and chloramphenicol (10 μg/mL). Colonies appeared after overnight incubation at 30° C. A single colony was picked up from the LM plate. This strain was grown for 16 hrs with aeration at 175 r.p.m and at 30° C. in 2 mL of Autoinducer Bioassay (AB) medium with antibiotics (kanamycin 50 μg/mL and chloramphenicol 10 μg/mL). The culture was then diluted to an OD600 0.7. This preinoculum was grown in AB-Fe medium with 1.2 mM of iron to OD600 1.0-1.1. The resulting inoculum culture was then diluted 5000-fold in fresh AB medium.
Solutions of the test compounds in AB medium were prepared in 96-well plates. To these solutions, freshly synthesized DPD (pH=7) solution was added for a final concentration of 5 μM. Boric acid was added to give a final concentration of 1 mM. After the addition of bacteria in AB medium, the micro plates were covered with a non-toxic plate sealer and incubated at 30° C. with aeration for 3-4 hrs.
In an initial round of screening, the concentration of the test compounds was fixed at 100 μg/mL (about 200-600 μM).

The test system of a further assay is cysteines in protein. Particulars: read-out: EC50, covalent modification of cysteines in protein; cited from earlier work.
Where [3] appears, read: compound at 125 μM, control 79.4 min.
Setting [4] is: V. harveyi MM32, DPD 5 μM, boric acid 1 mM, read-out: IC50 value, inhibition of AI-2-mediated quorum sensing (V. harveyi luminescence).
Where [5] appears, read: Vibrio harveyi, read-out: IC50 value, inhibition of AI-2-mediated quorum sensing (V. harveyi luminescence), V. harveyi MM32, DPD 5 μM, boric acid 1 mM.

Structures are written as SMILES. Values joined by “and” are separate entries in the source; they are usually repeats but may differ in a detail not shown here. Equal entries are not always repeated. Where two headings read alike, the source gives them in different places.

Text for V. harveyi: To make sure that the observed luminescence intensity changes were not due to inhibition of bacterial growth, the effect of these boronic acids on bacterial growth was also studied.

Consider `CCCCC1=C(Br)/C(=C/Br)OC1=O` [(5Z)-4-bromo-5-(bromomethylene)-3-butyl-2(5H)-furanone], for which, in assay [1], the “inhibition of AI-2-mediated gene expressions” value is listed as “inhibit many AI-2-mediated gene expressions”.
In the assay with V. harveyi (setting [3]), `OB(O)c1cncc2ccccc12` [Compound 4-IQBA] came in with a doubling time of 80.4 min. For the same compound, in assay [2] (setting [4]), the IC50 (as a rule, the concentration that gives 50% inhibition) was 66 µM and 66.1 µM.
`OB(O)c1cccc2cnccc12` [Compound 5-IQBA] returned a doubling time in the assay on V. harveyi (setting [3]) of 99.2 min. For the same compound, the IC50 in assay [2] (setting [4]) was 30 µM and 30.4 µM.
On to `CC(C)OC(=S)CS(=O)(=O)c1ccccc1` [Compound 23], for which the IC50 in assay [2] (setting [5]) was found to be 33 ± 4 µM.
`Oc1cccc(O)c1O` [Compound 61, pyrogallol]: in the assay on V. harveyi, the “effect on bacterial growth” value is recorded as “not due to growth inhibition”. Moreover, the doubling time in the assay on V. harveyi (compound at 5 μM, control 78.9 min) stood at 78.4 min. Besides, the IC50 in assay [2] (setting [5]) was 2 µM.
In the case of `c1ccc2c(c1)Nc1ccccc1S2` [Compound 62, phenothiazine], in the assay on V. harveyi, the “effect on bacterial growth” value is “not due to growth inhibition”. For the same compound, the doubling time in the assay on V. harveyi (compound at 20 μM, control 78.9 min) is 72.3 min. For the same compound, the IC50 was determined as 10 µM in assay [2] (setting [5]) and 10.7 ± 3.7 µM in assay [2] (read-out: IC50 value, inhibition of AI-2-mediated quorum sensing (V. harveyi luminescence), V. harveyi MM32, DPD 5 μM, boric acid 1 mM).
As for `Oc1ccccc1O` [Compound 63, catechol], in assay [2] (setting [5]), the IC50 was 59 ± 9 µM.
The same measure, in the same setting: the value for `CCOC(=S)CS(=O)(=O)c1ccc(Br)cc1` [Compound H14] was 13.8 ± 2 µM; that for `CCOC(=S)CS(=O)(=O)c1ccc(OC)cc1` [Compound H18] was 26 ± 3.5 µM.
On the same count and under the same terms, the value for `CCOC(=O)CS(=O)(=O)c1ccc(-c2ccc3c(c2)OCCO3)cc1` [Compound H20] was 157 ± 43 µM; that for `CCOC(=O)CS(=O)(=O)c1ccc(-c2ccc(C)cc2)cc1` [Compound H21] was 8.2 ± 2.3 µM.
On to `CCOC(=O)CS(=O)(=O)c1ccc(-c2ccc(C(N)=O)cc2)cc1` [Compound H24], for which the IC50 in assay [2] (setting [5]) worked out at 31.3 ± 23 µM.
Same read-out and setting: the figure for `CCCS(=O)(=O)CC(=S)OCC` [Compound H26] is 21.6 ± 2.9 µM; for `CCOC(=O)CS(=O)(=O)c1cccc(Br)c1` [Compound H28] it is 162 ± 22 µM.
Consider `O=CC=Cc1ccccc1` [cinnamaldehyde], for which, in the assay on cysteines in protein, the EC50 (usually the concentration needed to bring the measured effect to its halfway point) was 19 µM.

The record behind these values is patent publication US8653258B2, “Compositions for regulating or modulating quorum sensing in bacteria, methods of using the compounds, and methods of regulating or modulating quorum sensing in bacteria” (Georgia State University Research Foundation, Inc., priority 2007, dated 2014).
